Legend:
RT97 + RGC axons = experiment: Protection of retinal ganglion cell axons from degeneration following optic nerve transection (Table VIII); type: in vivo; settings: ± SEM
Excerpt: Efficacy of representative compounds from different immunophilin ligand series in protecting retinal ganglion cell axons from degeneration following optic nerve transection is set forth in Table VIII

[1] = test system: retina (INL, GCL, ONL, OPL, PR); experiment: Streptozotocin induced diabetes: retinal neovascularization and neuron loss; type: in vivo; settings: 28 day treatment beginning 8 weeks after onset of streptozotocin diabetes
[2] = test system: retinal ganglion cells and their axons; experiment: Example 15: optic nerve transection, 28 days GPI-1046, sacrifice at 90 days; type: in vivo, Sprague Dawley rats; settings: 10 mg/kg/day s.c. for 28 days; 90 days after transection; RT97
Excerpt: Transection of the mammalian optic nerve results in a brief period of abortive regeneration, but the majority of axotomized neurons die and the axons from many persisting ganglion cells die back beyond the optic nerve head.

[3] = test system: retinal ganglion cells and optic nerve axons; experiment: Optic nerve transection vision loss model, 14 or 28 day treatment, sacrifice 90 days after transection; type: in vivo, Sprague Dawley rats; settings: 28 days treatment; 90 days after ONT; cross sectional area × myelin density
Excerpt: All eyes and optic nerves stumps were removed.

[4] = test system: retinal ganglion cells, optic nerve axons and myelin; experiment: Retinal ischemia (intraocular pressure raised above arterial pressure), examined 28 days later; type: in vivo, adult rats
Excerpt: Retinal ganglion cells were retrogradely labeled in adult rats by bilateral injection of fluorogold in their lateral geniculate nuclei. Labeled ganglion cells in the normal rat retina appear as white profiles against the dark background (FIG. 1A). Complete retinal ischemia was produced by infusing normal saline solution into the retinal vitreous cavity of each eye until the intraocular pressure exceeded arterial blood pressure. 28 days after the ischemic episode extensive degeneration of retinal ganglion cell was evidenced by massive reduction in the density of fluorogold labeled cells (FIG. 1B).
Optic nerves from vehicle treated cases examined 28 days after a 1 hour retinal ischemic episode are characterized by a decreased density of optic nerve axons and the appearance of numerous degenerating myelin figures (bright white filled circles).

[5] = Clearance (Table VIII comments); type: in vitro ADME

O=C(SCCCc1ccccc1)[C@@H]1CCCN1C(=O)NC12CC3CC(CC(C3)C1)C2 [B]
RT97 +RGC axon density 14 days after ON transection (% ON axons rescued) (RT97 + RGC axons): 100.0%±5.2% SEM

O=C(SCCCc1ccccc1)[C@@H]1CCCN1S(=O)(=O)Cc1ccccc1 [C]
RT97 +RGC axon density 14 days after ON transection (% ON axons rescued) (RT97 + RGC axons): 60.4%±3.1% SEM

CCC(C)(C)C(=O)C(=O)N1CCC[C@H]1C(=O)OCCCc1cccnc1 [GPI 1046, 3-(3-pyridyl)-1-propyl (2s)-1-(3,3-dimethyl-1,2-dioxopentyl)-2-pyrrolidinecarboxylate]
neovascularization in PR, ONL, OPL and INL [1]: reduced neovascularization | preservation of axons in the proximal stump [2]: preserved the axons of virtually all protected neurons | Distal optic nerve myelin basic protein Density: myelin preservation [3]: ~99 % myelin preservation | RT97 +RGC axon density 14 days after ON transection (% ON axons rescued) (RT97 + RGC axons): 60.5%±3.9 SEM | protection of retinal ganglion cells after retinal ischemia ([4]; 10 mg/kg s.c. 1 hour prior and 10 mg/kg/day for next four days, 28 days after ischemia, fluorogold labeled cells): noticeable protection of a large proportion of the vulnerable ganglion cell population | protection of optic nerve axons after retinal ischemia ([4]; same cases, toluidine blue staining, 28 days after 1 hour ischemia): protected the majority of optic nerve exons from degeneration

CCC(C)(C)C(=O)C(=O)N1CCCC[C@H]1C(=O)O [G]
RT97 +RGC axon density 14 days after ON transection (% ON axons rescued) (RT97 + RGC axons): 34.0%±4.8% SEM

CCC(C)(C)C(=O)C(=O)N1CCCC[C@H]1C(N)=O [H]
RT97 +RGC axon density 14 days after ON transection (% ON axons rescued) (RT97 + RGC axons): 30.3%±8.0% SEM

O=C(OCCCc1cccnc1)[C@@H]1CCCN1C(=S)NC1CCCCC1 [I]
RT97 +RGC axon density 14 days after ON transection (% ON axons rescued) (RT97 + RGC axons): 23.8%±5.3 SEM

CCC(C)(C)C(=O)C(=O)N1CCC[C@H]1C(=O)CCCCc1cccnc1 [J]
RT97 +RGC axon density 14 days after ON transection (% ON axons rescued) (RT97 + RGC axons): 15.8%±4.8% SEM

CCC(C)(C)C(=O)C(=O)N1CCC[C@H]1C(=O)O [L]
Clearance [5]: 12.5 µL/min | RT97 +RGC axon density 14 days after ON transection (% ON axons rescued) (RT97 + RGC axons): 7.8%±3.0% SEM

CCC(C)(C)C(=O)C(=O)N1CCC[C@H]1C(=O)SCCC(c1ccccc1)c1ccccc1 [M]
RT97 +RGC axon density 14 days after ON transection (% ON axons rescued) (RT97 + RGC axons): −6.3%+3.9% SEM
